After the bases stand the sugars from the 5' end (letter, count) and the backbone: PS all phosphorothioate, else s phosphorothioate and o phosphodiester by linkage. Methylation of C is not given here. e = 2'-O-(2-methoxyethyl) (MOE); l = locked nucleic acid (LNA); d = 2'-deoxy (DNA)
Columns and labels:
[1] = target: DGAT2; details: ASO, HepG2, 0.12 µM
[2] = target: SNHG14; details: ASO
[3] = Mouse Primary Neuronal Cell, 0.005 µM

Row | Sequence | target mRNA inhibition ([2]; Human Neuronal Cell, 7.5 µM) [%] | other results
1 | AAAAACATGACAGCCAGGGT (sugars e5 d10 e5, PS) |  | target mRNA inhibition [1]: 31%
2 | TCTGTATACACCATCC (sugars l4 d10 l2, PS) |  | target mRNA inhibition ([2]; Human Neuronal Cell, 0.2 µM): 61%; target mRNA inhibition ([2]; Human Neuronal Cell, 1 µM): 68%
3 | TCTTACTCTGACTTTCCA (sugars l2 d14 l2, PS) |  | target mRNA inhibition ([2]; Human Neuronal Cell, 0.2 µM): 56%; target mRNA inhibition ([2]; Human Neuronal Cell, 1 µM): 65%
4 | TCTTTCCATTTATTTCCATT (sugars l2 d4 l1 d11 l2, PS) | 48 | 
5 | TGAAAATCTCAACTACCAT (sugars ldllddddddddlddldll, PS) | 44 | 
6 | TGAAAATCTCAACTACCAT (sugars lldlldddddddlddldll, PS) | 46 | 
7 | TGCTCACTAACTACAC (sugars l3 d10 l3, PS) |  | target mRNA inhibition ([2]; Human Neuronal Cell, 0.2 µM): 22%; target mRNA inhibition ([2]; Human Neuronal Cell, 1 µM): 9%
8 | TGTCATCTACAAATCA (sugars l4 d10 l2, PS) |  | target mRNA inhibition ([2]; Human Neuronal Cell, 0.2 µM): 50%; target mRNA inhibition ([2]; Human Neuronal Cell, 1 µM): 46%
9 | TGTCTATTCTCTTCATT (sugars l4 d11 l2, PS) |  | target mRNA inhibition ([2]; Human Neuronal Cell, 0.2 µM): 37%; target mRNA inhibition ([2]; Human Neuronal Cell, 1 µM): 30%
10 | TGTTTATACCCTTTCC (sugars l4 d10 l2, PS) |  | target mRNA inhibition ([2]; Human Neuronal Cell, 0.2 µM): 58%; target mRNA inhibition ([2]; Human Neuronal Cell, 1 µM): 56%
11 | TGTTTATACCCTTTCCAA (sugars l1 d4 l1 d9 l3, PS) | 56 | 
12 | TGTTTATACCCTTTCCAA (sugars lldlddddddddddldll, PS) | 57 | 
13 | TGTTTCCATCTACTATTA (sugars lddldddddddddlldll, PS) | 63 | 
14 | TGTTTCCATCTACTATTA (sugars ldlldlddddddddddll, PS) | 60 | 
15 | TTAAATCCAGCATTCA (sugars l3 d10 l3, PS) |  | target mRNA inhibition ([2]; Human Neuronal Cell, 0.2 µM): 54%; target mRNA inhibition ([2]; Human Neuronal Cell, 1 µM): 66%
16 | TTACACATGTATATCC (sugars l3 d10 l3, PS) |  | target mRNA inhibition ([2]; Human Neuronal Cell, 0.2 µM): 41%; target mRNA inhibition ([2]; Human Neuronal Cell, 1 µM): 36%
17 | TTACACTTAATTATACTTCC (sugars l2 d4 l1 d11 l2, PS) | 41 | 
18 | TTACACTTAATTATACTTCC (sugars ldddddldddddddldldll, PS) | 61 | 
19 | TTACACTTAATTATACTTCC (sugars ldllddldddddddldddll, PS) | 64 | 
20 | TTACCTACATCTCATACT (sugars l2 d14 l2, PS) |  | target mRNA inhibition ([2]; Human Neuronal Cell, 0.2 µM): 5%; target mRNA inhibition ([2]; Human Neuronal Cell, 1 µM): 14%; target mRNA inhibition ([2]; Human Neuronal Cell, 5 µM): 17%; target mRNA inhibition [2, 3]: 77.1%
21 | TTACCTACATCTCATACTT (sugars l3 d13 l3, PS) |  | target mRNA inhibition ([2]; Human Neuronal Cell, 0.2 µM): -12%; target mRNA inhibition ([2]; Human Neuronal Cell, 1 µM): -3%; target mRNA inhibition ([2]; Human Neuronal Cell, 5 µM): 13%; target mRNA inhibition [2, 3]: 86.7%
22 | TTACTCTTTGATTTCAT (sugars l3 d11 l3, PS) |  | target mRNA inhibition ([2]; Human Neuronal Cell, 0.2 µM): 34%; target mRNA inhibition ([2]; Human Neuronal Cell, 1 µM): 34%
23 | TTATACACCATCATTAT (sugars l3 d11 l3, PS) |  | target mRNA inhibition ([2]; Human Neuronal Cell, 0.2 µM): 47%; target mRNA inhibition ([2]; Human Neuronal Cell, 1 µM): 52%

Row | Sequence | target mRNA inhibition ([2]; Human Neuronal Cell, 7.5 µM) [%] | other results
24 | TTATACCTTTCTTTAACC (sugars l4 d12 l2, PS) |  | target mRNA inhibition ([2]; Human Neuronal Cell, 0.2 µM): 38%; target mRNA inhibition ([2]; Human Neuronal Cell, 1 µM): 57%
25 | TTATACCTTTCTTTAACCCT (sugars lddddlddddddddldddll, PS) | 58 | 
26 | TTATACCTTTCTTTAACCCT (sugars ldlddlddddddddddddll, PS) | 56 | 
27 | TTATAGCCATTCTATCT (sugars l1 d1 l1 d9 l5, PS) | 55 | 
28 | TTATAGCCATTCTATCT (sugars l1 d1 l3 d10 l2, PS) | 67 | 
29 | TTATAGCCATTCTATCT (sugars l1 d10 l1 d1 l4, PS) | 53 | 
30 | TTATAGCCATTCTATCT (sugars l1 d10 l3 d1 l2, PS) | 51 | 
31 | TTATAGCCATTCTATCT (sugars l2 d9 l1 d1 l4, PS) | 49 | 
32 | TTATAGCCATTCTATCT (sugars l2 d9 l1 d2 l3, PS) | 53 | 
33 | TTATAGCCATTCTATCT (sugars l2 d13 l2, PS) | 48 | 
34 | TTATAGCCATTCTATCT (sugars l3 d9 l1 d2 l2, PS) | 52 | 
35 | TTATAGCCATTCTATCT (sugars l3 d12 l2, PS) | 59 | 
36 | TTATAGCCATTCTATCT (sugars l4 d11 l2, PS) |  | target mRNA inhibition ([2]; Human Neuronal Cell, 0.2 µM): 63%; target mRNA inhibition ([2]; Human Neuronal Cell, 1 µM): 69%
37 | TTATAGCCATTCTATCT (sugars ldddldddddddlldll, PS) | 24 | 
38 | TTATAGCCATTCTATCT (sugars lddldddddddldldll, PS) | 25 | 
39 | TTATAGCCATTCTATCT (sugars ldlddddddddldllll, PS) | 49 | 
40 | TTATAGCCATTCTATCT (sugars ldlddddddddlldlll, PS) | 43 | 
41 | TTATAGCCATTCTATCT (sugars ldlllddddddldddll, PS) | 44 | 
42 | TTATTCTGACACACTT (sugars l3 d10 l3, PS) |  | target mRNA inhibition ([2]; Human Neuronal Cell, 0.2 µM): 35%; target mRNA inhibition ([2]; Human Neuronal Cell, 1 µM): 35%
43 | TTATTCTTACCGTCTTT (sugars l2 d11 l4, PS) |  | target mRNA inhibition ([2]; Human Neuronal Cell, 0.2 µM): 61%; target mRNA inhibition ([2]; Human Neuronal Cell, 1 µM): 65%
44 | TTATTTCCATTTATTTTCA (sugars ldldlddddddddllldll, PS) | 62 | 
45 | TTCCATGCAAACTTTA (sugars l4 d10 l2, PS) |  | target mRNA inhibition ([2]; Human Neuronal Cell, 0.2 µM): 49%; target mRNA inhibition ([2]; Human Neuronal Cell, 1 µM): 64%
46 | TTCCTTTAATGCTTCTA (sugars l4 d11 l2, PS) |  | target mRNA inhibition ([2]; Human Neuronal Cell, 0.2 µM): 55%; target mRNA inhibition ([2]; Human Neuronal Cell, 1 µM): 65%

Row | Sequence | target mRNA inhibition ([2]; Human Neuronal Cell, 7.5 µM) [%] | other results
47 | TTCTACTATACTTTCCTCT (sugars l1 d13 l1 d2 l2, PS) | 47 | 
48 | TTCTACTATACTTTCCTCT (sugars ldddddddddddldlddll, PS) | 60 | 
49 | TTCTGTATACACCATCC (sugars l1 d1 l2 d11 l2, PS) | 55 | 
50 | TTCTGTATACACCATCC (sugars l1 d2 l1 d11 l2, PS) | 56 | 
51 | TTCTGTATACACCATCC (sugars l3 d1 l1 d10 l2, PS) | 54 | 
52 | TTCTGTATACACCATCC (sugars ldldlddddddddddll, PS) | 62 | 
53 | TTGATTCAATTCCCTTA (sugars l2 d10 l1 d2 l2, PS) | 69 | 
54 | TTGATTCAATTCCCTTA (sugars l2 d11 l4, PS) |  | target mRNA inhibition ([2]; Human Neuronal Cell, 0.2 µM): 60%; target mRNA inhibition ([2]; Human Neuronal Cell, 1 µM): 69%
55 | TTGATTCAATTCCCTTA (sugars lddllddddddllddll, PS) | 55 | 
56 | TTGATTCAATTCCCTTA (sugars ldlldddddddldldll, PS) | 68 | 
57 | TTGATTCAATTCCCTTA (sugars lldddddddddldldll, PS) | 61 | 
58 | TTGATTCAATTCCCTTA (sugars llddldddddddlddll, PS) | 67 | 
59 | TTGATTCCACCATTAA (sugars l3 d10 l3, PS) |  | target mRNA inhibition ([2]; Human Neuronal Cell, 0.2 µM): 49%; target mRNA inhibition ([2]; Human Neuronal Cell, 1 µM): 28%
60 | TTGTCAATCTTTATTCT (sugars l4 d11 l2, PS) |  | target mRNA inhibition ([2]; Human Neuronal Cell, 0.2 µM): 33%; target mRNA inhibition ([2]; Human Neuronal Cell, 1 µM): 45%
61 | TTTACACTTAATTATACTTC (sugars lddldldddddddlldllll, PS) | 36 | 
62 | TTTACACTTAATTATACTTC (sugars ldlllddddddddlllddll, PS) | 48 | 
63 | TTTACTCTGCAATACA (sugars l2 d10 l4, PS) |  | target mRNA inhibition ([2]; Human Neuronal Cell, 0.2 µM): 45%; target mRNA inhibition ([2]; Human Neuronal Cell, 1 µM): 60%
64 | TTTATACCTTTCTTTAACCC (sugars l1 d13 l1 d3 l2, PS) | 57 | 
65 | TTTATACCTTTCTTTAACCC (sugars l1 d14 l1 d2 l2, PS) | 53 | 
66 | TTTATCAATATCTTCTCA (sugars lddddlddddddldllll, PS) | 61 | 
67 | TTTATCAATATCTTCTCA (sugars lddlllddddddddldll, PS) | 67 | 
68 | TTTATCAATATCTTCTCA (sugars lldldldddddddlldll, PS) | 66 | 
69 | TTTATCAATATCTTCTCA (sugars lllddlddddddldldll, PS) | 37 | 

Row | Sequence | target mRNA inhibition ([2]; Human Neuronal Cell, 7.5 µM) [%] | other results
70 | TTTATCAATATCTTCTCAC (sugars lldldlddddddddldlll, PS) | 63 | 
71 | TTTATCAATATCTTCTCACT (sugars ldddddldddddddlddlll, PS) | 45 | 
72 | TTTATCAATATCTTCTCACT (sugars lddddlddddddddldddll, PS) | 34 | 
73 | TTTATCAATATCTTCTCACT (sugars lddlddddddddddlddlll, PS) | 53 | 
74 | TTTATCAATATCTTCTCACT (sugars lddlddldddddddddddll, PS) | 28 | 
75 | TTTATCTCATGACCACC (sugars l2 d11 l4, PS) |  | target mRNA inhibition ([2]; Human Neuronal Cell, 0.2 µM): 54%; target mRNA inhibition ([2]; Human Neuronal Cell, 1 µM): 56%
76 | TTTATGTTTACTTCAT (sugars l3 d10 l3, PS) |  | target mRNA inhibition ([2]; Human Neuronal Cell, 0.2 µM): 33%; target mRNA inhibition ([2]; Human Neuronal Cell, 1 µM): 47%
77 | TTTATTAGATTACTCC (sugars l2 d10 l4, PS) |  | target mRNA inhibition ([2]; Human Neuronal Cell, 0.2 µM): 24%; target mRNA inhibition ([2]; Human Neuronal Cell, 1 µM): 17%
78 | TTTCCATTTATTTCCATTT (sugars lddddldddddddldllll, PS) | 54 | 
79 | TTTCCATTTATTTCCATTT (sugars lddldldddddddldddll, PS) | 53 | 
80 | TTTTAACCAGAGTGGC (sugars l1 d11 l4, PS) | 53 | 
81 | TTTTATACCTTTCTTTAACC (sugars ldlddddddddddlddllll, PS) | 64 | 
82 | TTTTTATACCTTTCTTTAAC (sugars ldddlldddddddlddddll, PS) | 15 | 
83 | TTTTTATACCTTTCTTTAAC (sugars lddldddddddddldlldll, PS) | 61 | 
84 | TTTTTATACCTTTCTTTAAC (sugars ldlddldddddddlldddll, PS) | 23 | 
85 | TTTTTATACCTTTCTTTAAC (sugars lldllddddddddllddlll, PS) | 60 | 
86 | TTTTTTCTTACTATCTTCAA (sugars l1 d13 l1 d2 l3, PS) | 60 | 
87 | TTTTTTCTTACTATCTTCAA (sugars ldldldldddddddldddll, PS) | 57 | 
88 | TTTTTTTCTTACTATCTTCA (sugars ldddllddddddddddldll, PS) | 50 | 
89 | TTTTTTTCTTACTATCTTCA (sugars ldlldddddddddlddldll, PS) | 59 | 
